# Literature values in patent US20230107398A1, “IMMEDIATE RELEASE FORMULATIONS OF d-LYSERGIC ACID DI[…] THERAPEUTIC APPLICATIONS” (Mind Medicine, Inc., priority 2021, published 2023).
# Settings: room temperature
compound,measurement,value
"CCN(CC)C(=O)[C@@H]1C=C2c3cccc4[nH]cc(c34)C[C@H]2N(C)C1 [LSD, 9,10-didehydro-N,N-diethyl-6-methylergoline-8β-carboxamide]",Stability in oral solution,not stable
